Measured values as given in ChEMBL document CHEMBL5661943, “ASAP - In vitro antiviral effect” (2024).

How the values were obtained:
dengue virus type 2 = test: Functional immunofluorescence assay to measure dose dependent changes in antiviral-drug inhibitory efficacy against Dengue virus type 2 Thailand/16681/84 in Vero E6/TMPRSS2 cells (cotreated with P-gp inhibitor, Elacridar). Cells are treated with antiviral candidates that are serially diluted, following infection, cells are fixed. EC50 is reported via analysis of immunofluorescence staining. The assay has been performed by Icahn School of Medicine at Mount Sinai.; assay type: organism-based, Chlorocebus sabaeus, VeroE6/TMPRSS2; conditions: Dengue virus
Zika virus = test: EC50 is reported via analysis of immunofluorescence staining. The assay has been performed by Icahn School of Medicine at Mount Sinai.; assay type: functional, organism-based, Chlorocebus sabaeus, VeroE6/TMPRSS2; conditions: Zika virus

| Structure (SMILES) | EC50 (dengue virus type 2; VeroE6/TMPRSS2) [µM] | EC50 (Zika virus; VeroE6/TMPRSS2) [µM] | further results |
| --- | --- | --- | --- |
| NCc1cccc([C@@H]2C[C@H]2c2cc(Cl)cc(NC(=O)OCc3ccccc3)c2)c1 | > 5.56 | > 5.56 | EC90 (dengue virus type 2; VeroE6/TMPRSS2, Maximum measured 134.824 %, Minimum measured 97.991 %, P-gp concentration 2 uM, P-gp inhibitor Elacidar): > 5.56 µM; EC90 (Zika virus; VeroE6/TMPRSS2, Maximum measured 125.497 %, Minimum measured 83.326 %, P-gp concentration 2 uM, P-gp inhibitor Elacidar): > 5.56 µM |
| NCc1cccc(NC(=O)C[C@H](NC(=O)OCc2ccccc2)c2ccc(OCc3ccccc3)c(Br)c2)c1 | > 16.7 | 1.7 | EC90 (dengue virus type 2; VeroE6/TMPRSS2, Baseline response 0 %, Hill slope 0.065, Maximum measured 60.527 %, Maximum response 100 %, Minimum measured 30.522 %, P-gp concentration 2 uM, R squared 0.087, P-gp inhibitor Elacidar): > 16.7 µM; EC90 (Zika virus; VeroE6/TMPRSS2, Baseline response 0 %, Hill slope -0.518, Maximum measured 120.113 %, Maximum response 100 %, Minimum measured 9.459 %, P-gp concentration 2 uM, R squared 0.639, P-gp inhibitor Elacidar): > 50 µM |
| CC[C@H](Cc1nnn[nH]1)c1ccc(NC(=O)c2cc(Cl)cc(-n3cccc3)c2)cc1 | 42.5 | 46.8 | EC90 (dengue virus type 2; VeroE6/TMPRSS2, Baseline response 0 %, Hill slope -23.366, Maximum measured 115.315 %, Maximum response 100 %, Minimum measured 2.218 %, P-gp concentration 2 uM, R squared 0.505, P-gp inhibitor Elacidar): 46.7 µM; EC90 (Zika virus; VeroE6/TMPRSS2, Baseline response 0 %, Hill slope -17.276, Maximum measured 183.537 %, Maximum response 154.104 %, Minimum measured 37.545 %, P-gp concentration 2 uM, R squared 0.817, P-gp inhibitor Elacidar): > 50 µM |
| C[C@@H](N)c1cccc(NC(=O)[C@H]2[C@H]3CCCCC[C@H]3[C@H]2NC(=O)OCc2ccccc2)c1 | > 5.56 | > 5.56 | EC90 (dengue virus type 2; VeroE6/TMPRSS2, Baseline response 0 %, Hill slope -0.267, Maximum measured 104.495 %, Maximum response 100 %, Minimum measured 46.505 %, P-gp concentration 2 uM, R squared 0.299, P-gp inhibitor Elacidar): > 5.56 µM; EC90 (Zika virus; VeroE6/TMPRSS2, Maximum measured 138.527 %, Minimum measured 84.272 %, P-gp concentration 2 uM, P-gp inhibitor Elacidar): > 5.56 µM |
| CCOc1cccc(-c2ccc(S(=O)(=O)Nc3cc4c(cc3C(=O)O)CCC4)cc2)c1 | > 16.7 | > 50 | EC90 (dengue virus type 2; VeroE6/TMPRSS2, Baseline response 0 %, Hill slope -0.37, Maximum measured 131.408 %, Maximum response 100 %, Minimum measured 56.89 %, P-gp concentration 2 uM, R squared 0.244, P-gp inhibitor Elacidar): > 16.7 µM; EC90 (Zika virus; VeroE6/TMPRSS2, Baseline response 0 %, Hill slope -16.078, Maximum measured 130.08 %, Maximum response 100 %, Minimum measured 52.734 %, P-gp concentration 2 uM, R squared 0.304, P-gp inhibitor Elacidar): > 50 µM |
| O=C(Nc1cc(Cl)cc(C(=O)Nc2cccc([C@H]3CCNC3)c2)c1)OCc1ccccc1 | > 5.56 | 42.7 | EC90 (dengue virus type 2; VeroE6/TMPRSS2, Maximum measured 260.488 %, Minimum measured 106.051 %, P-gp concentration 2 uM, P-gp inhibitor Elacidar): > 5.56 µM; EC90 (Zika virus; VeroE6/TMPRSS2, Baseline response 0 %, Hill slope -21.619, Maximum measured 167.541 %, Maximum response 100 %, Minimum measured 3.263 %, P-gp concentration 2 uM, R squared 0.234, P-gp inhibitor Elacidar): 47.3 µM |
| CCOC(=O)Nc1cc(Cl)cc(C(=O)Nc2cccc(CN)c2)c1 | > 16.7 | > 50 | EC90 (dengue virus type 2; VeroE6/TMPRSS2, Maximum measured 179.291 %, Minimum measured 97.679 %, P-gp concentration 2 uM, P-gp inhibitor Elacidar): > 16.7 µM; EC90 (Zika virus; VeroE6/TMPRSS2, Maximum measured 144.074 %, Minimum measured 100.96 %, P-gp concentration 2 uM, P-gp inhibitor Elacidar): > 50 µM |
| NCc1ccc(F)c(NC(=O)c2cc(Cl)cc(NC(=O)OCc3ccccc3)c2)c1 | > 5.56 | > 5.56 | EC90 (dengue virus type 2; VeroE6/TMPRSS2, Maximum measured 158.385 %, Minimum measured 97.578 %, P-gp concentration 2 uM, P-gp inhibitor Elacidar): > 5.56 µM; EC90 (Zika virus; VeroE6/TMPRSS2, Maximum measured 191.718 %, Minimum measured 113.213 %, P-gp concentration 2 uM, P-gp inhibitor Elacidar): > 5.56 µM |
| O=C(O)CCc1ccc(NC(=O)c2cc(Cl)cc(NC(=O)OCc3ccccc3)c2)cc1 | 23.4 | > 50 | EC90 (dengue virus type 2; VeroE6/TMPRSS2): 44.4 µM; EC90 (Zika virus; VeroE6/TMPRSS2, Maximum measured 138.099 %, Minimum measured 61.86 %, P-gp concentration 2 uM, P-gp inhibitor Elacidar): > 50 µM |
| O=C(Nc1cc(Cl)cc(C(=O)Nc2cc(Br)cc(-c3nnn[nH]3)c2)c1)OCc1ccccc1 | 11.4 | 41.4 | EC90 (dengue virus type 2; VeroE6/TMPRSS2, Baseline response 0 %, Hill slope -3.68, Maximum measured 234.045 %, Maximum response 186.52 %, Minimum measured 36.837 %, P-gp concentration 2 uM, R squared 0.67, P-gp inhibitor Elacidar): > 16.7 µM; EC90 (Zika virus; VeroE6/TMPRSS2, Baseline response 0 %, Hill slope -35.305, Maximum measured 180.813 %, Maximum response 100 %, Minimum measured 13.985 %, P-gp concentration 2 uM, R squared 0.137, P-gp inhibitor Elacidar): 44.1 µM |
| CC[C@H](Cc1nn[nH]n1)c1ccc(N[C@H](C(=O)NC)c2cc(Cl)cc(NC(=O)OCc3ccccc3)c2)cc1 | > 50 | > 50 | EC90 (dengue virus type 2; VeroE6/TMPRSS2, Baseline response 0 %, Hill slope -0.218, Maximum measured 117.472 %, Maximum response 100 %, Minimum measured 37.097 %, P-gp concentration 2 uM, R squared 0.193, P-gp inhibitor Elacidar): > 50 µM; EC90 (Zika virus; VeroE6/TMPRSS2, Maximum measured 168.95 %, Minimum measured 107.074 %, P-gp concentration 2 uM, P-gp inhibitor Elacidar): > 50 µM |
| CC[C@H](Cc1nnn[nH]1)c1ccc(NC(=O)[C@H]2[C@H]3CCCCC[C@H]3[C@H]2NC(=O)OCc2ccccc2)cc1 | 16.1 | > 50 | EC90 (dengue virus type 2; VeroE6/TMPRSS2): 44.8 µM; EC90 (Zika virus; VeroE6/TMPRSS2, Baseline response 0 %, Hill slope -0.151, Maximum measured 102.715 %, Maximum response 100 %, Minimum measured 55.5 %, P-gp concentration 2 uM, R squared 0.202, P-gp inhibitor Elacidar): > 50 µM |
| CC(=O)Nc1cc(Cl)cc(C(=O)Nc2cccc(CN)c2)c1 | > 16.7 | > 50 | EC90 (dengue virus type 2; VeroE6/TMPRSS2, Maximum measured 143.919 %, Minimum measured 91.997 %, P-gp concentration 2 uM, P-gp inhibitor Elacidar): > 16.7 µM; EC90 (Zika virus; VeroE6/TMPRSS2, Baseline response 0 %, Hill slope 0.296, Maximum measured 131.154 %, Maximum response 100 %, Minimum measured 80.704 %, P-gp concentration 2 uM, R squared 0.041, P-gp inhibitor Elacidar): > 50 µM |
| NCc1cccc(NC(=O)[C@H]2[C@H]3CCCCC[C@H]3[C@H]2NC(=O)OCc2ccccc2)c1 | > 5.56 | 1.43 | EC90 (dengue virus type 2; VeroE6/TMPRSS2, Baseline response 0 %, Hill slope -0.21, Maximum measured 66.083 %, Maximum response 100 %, Minimum measured 25.848 %, P-gp concentration 2 uM, R squared 0.326, P-gp inhibitor Elacidar): > 5.56 µM; EC90 (Zika virus; VeroE6/TMPRSS2): 9.76 µM |
| Cc1ccc(-c2nnn[nH]2)cc1NC(=O)c1cc(Cl)cc(NC(=O)OCc2ccccc2)c1 | 40.5 | > 16.7 | EC90 (dengue virus type 2; VeroE6/TMPRSS2, Baseline response 0 %, Hill slope -16.355, Maximum measured 369.361 %, Maximum response 277.036 %, Minimum measured 8.558 %, P-gp concentration 2 uM, R squared 0.765, P-gp inhibitor Elacidar): 46.3 µM; EC90 (Zika virus; VeroE6/TMPRSS2, Maximum measured 182.406 %, Minimum measured 123.883 %, P-gp concentration 2 uM, P-gp inhibitor Elacidar): > 16.7 µM |
| NCc1cccc(NC(=O)[C@@H](NC(=O)OCc2ccccc2)c2ccc(Br)c(Cl)c2)c1 | > 5.56 | 0.557 | EC90 (dengue virus type 2; VeroE6/TMPRSS2, Maximum measured 72.758 %, Minimum measured 24.513 %, P-gp concentration 2 uM, P-gp inhibitor Elacidar): > 5.56 µM; EC90 (Zika virus; VeroE6/TMPRSS2, Baseline response 0 %, Hill slope -0.711, Maximum measured 91.358 %, Maximum response 100 %, Minimum measured 2.864 %, P-gp concentration 2 uM, R squared 0.54, P-gp inhibitor Elacidar): > 5.56 µM |
| CCCC(=O)Nc1cc(Cl)cc(C(=O)Nc2cccc(CN)c2)c1 | > 50 | > 16.7 | EC90 (dengue virus type 2; VeroE6/TMPRSS2, Maximum measured 163.615 %, Minimum measured 116.069 %, P-gp concentration 2 uM, P-gp inhibitor Elacidar): > 50 µM; EC90 (Zika virus; VeroE6/TMPRSS2, Baseline response 0 %, Hill slope -0.382, Maximum measured 108.39 %, Maximum response 100 %, Minimum measured 82.052 %, P-gp concentration 2 uM, R squared 0.052, P-gp inhibitor Elacidar): > 16.7 µM |
| O=C(Nc1cc(Cl)cc(C(=O)Nc2ccc3c(c2)CNCCO3)c1)OCc1ccccc1 | 0.669 | 5.26 | EC90 (dengue virus type 2; VeroE6/TMPRSS2, Baseline response 0 %, Hill slope -1.036, Maximum measured 111.022 %, Maximum response 100 %, Minimum measured 5.282 %, P-gp concentration 2 uM, R squared 0.817, P-gp inhibitor Elacidar): > 5.56 µM; EC90 (Zika virus; VeroE6/TMPRSS2, Baseline response 0 %, Hill slope -16.118, Maximum measured 155.613 %, Maximum response 100 %, Minimum measured 29.546 %, P-gp concentration 2 uM, R squared 0.374, P-gp inhibitor Elacidar): > 5.56 µM |
| CC[C@H](Cc1nnn[nH]1)c1ccc(NC(=O)c2cc(Cl)cc(C3CC3)c2)cc1 | > 16.7 | > 50 | EC90 (dengue virus type 2; VeroE6/TMPRSS2, Maximum measured 194.23 %, Minimum measured 94.649 %, P-gp concentration 2 uM, P-gp inhibitor Elacidar): > 16.7 µM; EC90 (Zika virus; VeroE6/TMPRSS2, Maximum measured 167.989 %, Minimum measured 95.132 %, P-gp concentration 2 uM, P-gp inhibitor Elacidar): > 50 µM |
